Key:
[1] = system: wild oat; assay: Test Example 4: herbicidal effect by soil treatment (Table 19, symbol I); type: in vivo, wild oat (Avena fatua); conditions: amount of applied herbicide 320 g/ha
In short: (§1)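 Seeds were sown in sterilized diluvial soil and covered with about 1.5 cm of soil. An emulsion formulation diluted with water to a predetermined herbicide amount was sprayed evenly onto the soil surface. Plants grew in a greenhouse at 25° C. to 30° C., and the effect was scored three weeks after application using criteria from an earlier test.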

[2] = system: southern crabgrass; assay: Test Example 4: herbicidal effect by soil treatment (Table 19, symbol F); type: in vivo, southern crabgrass (Digitaria ciliaris); conditions: amount of applied herbicide 320 g/ha
In short: as §1

[3] = system: oval-leafed pondweed; assay: Test Example 1: herbicidal activity, application before weed generation under submerged conditions (Table 16, symbol C); type: in vivo, oval-leafed pondweed (Monochoria vaginalis); conditions: amount of applied herbicide 320 g/ha
In short: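 Submerged Wagner pots (alluvial soil, 4 cm water) sown with weed seeds and planted with 2.5-leaf rice seedlings; emulsifiable concentrate diluted in water applied to water surface on sowing day. Held in greenhouse at 25-30 °C; injury scored 0-5 by herbicidal rate after three weeks.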

[4] = system: Italian ryegrass; assay: Test Example 5: herbicidal effect by foliage application, plastic box (Table 20, symbol K); type: in vivo, Italian ryegrass (Lolium multiflorum); conditions: foliage application, 320 g/ha, three weeks after application
In short: (§2)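 Plants sown in sterilized diluvial soil and grown 14 days in a greenhouse at 25° C to 30° C, then sprayed on the foliage with the compound's emulsion diluted in water to a predetermined herbicide amount. Injury to weeds and crops scored three weeks after application on a visual rating scale.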

[5] = system: false cleavers; assay: Test Example 5: herbicidal effect by foliage application, plastic box (Table 20, symbol Q); type: in vivo, false cleavers (Galium spurium); conditions: foliage application, 320 g/ha, three weeks after application
In short: as §2

[6] = system: southern crabgrass; assay: Test Example 5: herbicidal effect by foliage application, plastic box (Table 20, symbol F); type: in vivo, southern crabgrass (Digitaria ciliaris); conditions: foliage application, 320 g/ha, three weeks after application
In short: as §2

[7] = system: wild oat; assay: Test Example 5: herbicidal effect by foliage application, plastic box (Table 20, symbol I); type: in vivo, wild oat (Avena fatua); conditions: foliage application, 320 g/ha, three weeks after application
In short: as §2

[8] = system: velvetleaf; assay: Test Example 5: herbicidal effect by foliage application, plastic box (Table 20, symbol M); type: in vivo, velvetleaf (Abutilon theophrasti); conditions: foliage application, 320 g/ha, three weeks after application
In short: as §2

[9] = system: rice flat sedge; assay: Test Example 3: herbicidal effect by foliage application, Wagner pot (Table 18, symbol E); type: in vivo, rice flat sedge (Cyperus iria); conditions: for herbicidal effect on E: rice flat sedge: amount of applied herbicide 320 g/ha; for herbicidal effect on rice flat sedge (E): 320 g/ha
In short: (§3)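 Plants were sown in alluvial soil held under 0.1–0.5 cm standing water and grown 14 days in a greenhouse at 25–30 °C. An emulsifiable formulation, water-diluted to the set dose, was then sprayed onto the foliage, and effects were scored three weeks later using previously defined criteria.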

[10] = system: Japanese bulrush; assay: Test Example 2: herbicidal activity, application during weed generation under submerged conditions (Table 17, symbol B); type: in vivo, Japanese bulrush (Schoenoplectus juncoides); conditions: AAH 320 g/ha; application during weed generation, submerged conditions
In short: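 Mixed weed seedlings in alluvial soil under a 4 cm water layer, greenhouse-grown at 25–30° C. Compound given as a diluted emulsion into the floodwater at the 1–2 leaf stage; response graded after three weeks.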

[11] = system: green foxtail; assay: Test Example 4: herbicidal effect by soil treatment (Table 19, symbol G); type: in vivo, green foxtail (Setaria viridis); conditions: amount of applied herbicide 320 g/ha
In short: as §1

[12] = system: redroot pigweed; assay: Test Example 4: herbicidal effect by soil treatment (Table 19, symbol N); type: in vivo, redroot pigweed (Amaranthus retroflexus); conditions: amount of applied herbicide 320 g/ha
In short: as §1

[13] = system: barnyard grass; assay: Test Example 5: herbicidal effect by foliage application, plastic box (Table 20, symbol H); type: in vivo, barnyard grass (Echinochloa crus-galli); conditions: foliage application, 320 g/ha, three weeks after application
In short: as §2

[14] = system: Chinese sprangletop; assay: Test Example 3: herbicidal effect by foliage application, Wagner pot (Table 18, symbol D); type: in vivo, chinese sprangletop (Leptochloa chinensis); conditions: for herbicidal effect on D: Chinese sprangletop: amount of applied herbicide 320 g/ha; for herbicidal effect on Chinese sprangletop (D): 320 g/ha
In short: as §3

[15] = system: blackgrass; assay: Test Example 5: herbicidal effect by foliage application, plastic box (Table 20, symbol J); type: in vivo, blackgrass (Alopecurus myosuroides); conditions: foliage application, 320 g/ha, three weeks after application
In short: as §2

[16] = system: blackgrass; assay: Test Example 4: herbicidal effect by soil treatment (Table 19, symbol J); type: in vivo, blackgrass (Alopecurus myosuroides); conditions: amount of applied herbicide 320 g/ha
In short: as §1

[17] = system: lambsquarters; assay: Test Example 5: herbicidal effect by foliage application, plastic box (Table 20, symbol O); type: in vivo, lambsquarters (Chenopodium album); conditions: foliage application, 320 g/ha, three weeks after application
In short: as §2

Structure (SMILES) | herbicidal effect, I: wild oat [1] | herbicidal effect, F: southern crabgrass [2] | Herbicidal effect, C: oval-leafed pondweed [3] | K: Italian ryegrass, herbicidal effect grade [4] | Q: false cleavers, herbicidal effect grade [5] | F: southern crabgrass, herbicidal effect grade [6] | I: wild oat, herbicidal effect grade [7] | M: velvetleaf, herbicidal effect grade [8] | herbicidal effect on E: rice flat sedge [9] | herbicidal effect rating, B: Japanese bulrush [10] | herbicidal effect, G: green foxtail [11] | herbicidal effect, N: redroot pigweed [12] | H: barnyard grass, herbicidal effect grade [13] | herbicidal effect on D: Chinese sprangletop [14] | J: blackgrass, herbicidal effect grade [15] | herbicidal effect, J: blackgrass [16] | O: lambsquarters, herbicidal effect grade [17] | I: wild oat, herbicidal effect grade [1] | F: southern crabgrass, herbicidal effect grade [2] | herbicidal effect on rice flat sedge (E) [9] | other results
CCCC(=O)Oc1c(C)nn(C)c(=O)c1-c1c(-c2ccc(F)cc2OCC)sc2cc(F)ccc12 [3-012] | 3 (Herbicidal rate of 40% or more and less than 70%) | 3 (Herbicidal rate of 40% or more and less than 70%) | 4 (Herbicidal rate of 70% or more and less than 90%) | 4 (Herbicidal rate of 70% or more and less than 90%) | 5 (Herbicidal rate of 90% or more (almost completely withered)) | 5 (Herbicidal rate of 90% or more (almost completely withered)) | 5 (Herbicidal rate of 90% or more (almost completely withered)) | 5 (Herbicidal rate of 90% or more (almost completely withered)) | 5 (Herbicidal rate of 90% or more (almost completely withered)) | 5 (Herbicidal rate of 90% or more (almost completely withered)) | 3 (Herbicidal rate of 40% or more and less than 70%) | 4 (Herbicidal rate of 70% or more and less than 90%) | 5 (Herbicidal rate of 90% or more (almost completely withered)) | 2 (Herbicidal rate of 20% or more and less than 40%) | 5 (Herbicidal rate of 90% or more (almost completely withered)) | 4 (Herbicidal rate of 70% or more and less than 90%) | 4 (Herbicidal rate of 70% or more and less than 90%) | – | – | – | –
CCOc1ccccc1-c1sc2cc(OC)ccc2c1-c1c(O)c(C)nn(CC)c1=O [3-085] | – | – | 4 (Herbicidal rate of 70% or more and less than 90%) | 0 (Herbicidal rate of 5% or less (almost no effect)) | 4 (Herbicidal rate of 70% or more and less than 90%) | 5 (Herbicidal rate of 90% or more (almost completely withered)) | 4 (Herbicidal rate of 70% or more and less than 90%) | 5 (Herbicidal rate of 90% or more (almost completely withered)) | – | 3 (Herbicidal rate of 40% or more and less than 70%) | – | – | 4 (Herbicidal rate of 70% or more and less than 90%) | – | 4 (Herbicidal rate of 70% or more and less than 90%) | – | 3 (Herbicidal rate of 40% or more and less than 70%) | 0 (Herbicidal rate of 5% or less (almost no effect)) | 4 (Herbicidal rate of 70% or more and less than 90%) | 4 (Herbicidal rate of 70% or more and less than 90%) | G: green foxtail, herbicidal effect grade [11]: 3 (Herbicidal rate of 40% or more and less than 70%); N: redroot pigweed, herbicidal effect grade [12]: 3 (Herbicidal rate of 40% or more and less than 70%); herbicidal effect on Chinese sprangletop (D) [14]: 0 (Herbicidal rate of 5% or less (almost no effect)); J: blackgrass, herbicidal effect grade [16]: 1 (Herbicidal rate of 5% or more and less than 20%)
COc1ccccc1-c1sc2cc(F)ccc2c1-c1c(O)c(C)nn(C)c1=O [3-003] | 4 (Herbicidal rate of 70% or more and less than 90%) | 4 (Herbicidal rate of 70% or more and less than 90%) | 5 (Herbicidal rate of 90% or more (almost completely withered)) | 5 (Herbicidal rate of 90% or more (almost completely withered)) | 5 (Herbicidal rate of 90% or more (almost completely withered)) | 5 (Herbicidal rate of 90% or more (almost completely withered)) | 5 (Herbicidal rate of 90% or more (almost completely withered)) | 5 (Herbicidal rate of 90% or more (almost completely withered)) | 5 (Herbicidal rate of 90% or more (almost completely withered)) | 3 (Herbicidal rate of 40% or more and less than 70%) | 5 (Herbicidal rate of 90% or more (almost completely withered)) | 5 (Herbicidal rate of 90% or more (almost completely withered)) | 5 (Herbicidal rate of 90% or more (almost completely withered)) | 3 (Herbicidal rate of 40% or more and less than 70%) | 5 (Herbicidal rate of 90% or more (almost completely withered)) | 3 (Herbicidal rate of 40% or more and less than 70%) | 4 (Herbicidal rate of 70% or more and less than 90%) | – | – | – | –
COc1ccc2c(-c3c(O)c(C)nn(C)c3=O)c(-c3ccc(F)cc3OC)sc2c1 [3-076] | – | – | 5 (Herbicidal rate of 90% or more (almost completely withered)) | 4 (Herbicidal rate of 70% or more and less than 90%) | 4 (Herbicidal rate of 70% or more and less than 90%) | 3 (Herbicidal rate of 40% or more and less than 70%) | 4 (Herbicidal rate of 70% or more and less than 90%) | 3 (Herbicidal rate of 40% or more and less than 70%) | – | 4 (Herbicidal rate of 70% or more and less than 90%) | – | – | 3 (Herbicidal rate of 40% or more and less than 70%) | – | 4 (Herbicidal rate of 70% or more and less than 90%) | – | 5 (Herbicidal rate of 90% or more (almost completely withered)) | 3 (Herbicidal rate of 40% or more and less than 70%) | 0 (Herbicidal rate of 5% or less (almost no effect)) | 5 (Herbicidal rate of 90% or more (almost completely withered)) | G: green foxtail, herbicidal effect grade [11]: 5 (Herbicidal rate of 90% or more (almost completely withered)); N: redroot pigweed, herbicidal effect grade [12]: 5 (Herbicidal rate of 90% or more (almost completely withered)); herbicidal effect on Chinese sprangletop (D) [14]: 3 (Herbicidal rate of 40% or more and less than 70%); J: blackgrass, herbicidal effect grade [16]: 5 (Herbicidal rate of 90% or more (almost completely withered))
